Data published in patent US6627732B1, “Glutathione derivatives and their dosage forms” (Teijin Limited, priority 1998, dated 2003).

Assays:
swine liver esterase = assay: Decomposition of glutathione derivatives by swine liver esterase (physiological stability); format: in vitro ADME; conditions: BSA/D-PBS pH 7.4, 196-244 μg/ml
Description: (§1) (1) Bovine serum albumin (hereinafter referred to as BSA), Dulbecco's phosphate buffered saline (hereinafter referred to as D-PBS), swine liver esterase, and rabbit liver esterase were purchased from Sigma, 6-week old male SD rats were purchased from Nippon SLC, and 12-week old or older male Japanese white rabbits were purchased from Ichikawaya. On the day of the incubation experiment described below, blood was drawn from the animals in the presence of heparin, and plasma was separated therefrom for use. Human plasma was obtained from normal healthy males after obtaining their consent.
(§2) (2) The glutathione derivatives described in the Examples and Comparative Examples of the present invention were incubated for a fixed time in an enzyme solution having the following composition. Acetonitrile was added to the reaction mixture to inactivate the enzyme thereby to stop the reaction. The concentration of the glutathione derivatives in the deproteinized supernatant was measured by HPLC. For each time point of the esterase enzyme experiment, the mean values from two measurement or more were determined, and for the rats and rabbits the mean values of plasma samples from three individuals were determined. For some of the experiment data, changes with time of percentages relative to initial concentration of the glutathione derivative are shown in FIGS. 2 to 4.
(§3) Swine liver esterase and rabbit liver esterase experiment
(§4) 30 mg-BSA/ml-D-PBS (pH 7.4): 36 to 45 parts
(§5) Swine or rabbit liver esterase/D-PBS: 4-5 parts
(§6) 10 mg-glutathione derivative/ml-ethanol: one part (the final concentration in the reaction mixture is 196-244 μg/ml)

[1] = Pharmacokinetics after intravenous administration to rabbits, 2-compartment model (Example 25); format: in vivo, rabbit; conditions: iv auricular vein 2 ml/kg, fat emulsion (Comparative Ex. 1: HPCD/glucose solution)
Source text: For the glutathione derivative of the present invention having a long-chain ester having 12 carbons or more and the glutathione derivatives of the conventional technology of Comparative Examples 1 and 2, kinetics in the blood were compared in rabbits that are a species having allow esterase activity in the blood.
(1) Male Japanese white rabbits, 12-week old or older, were purchased from Ichikawaya, and those rabbits that became 15-week old or older and whose body weight reached about 3 kg were used for the experiment. During the period up to the experiment, the animals were allowed free access to the animal feed and drinking water and were kept at a temperature of 24±2° C. and a humidity of 55±5%.
(2) The glutathione derivative having a long-chain ester of 12 carbons or more and the glutathione derivative of Comparative Example 2 were prepared at 20-200 mg/ml in a mixture of ethanol or ethanol:benzyl alcohol, which was mixed with the fat emulsion just prior to use, and was filtered with a 1.2 μm filter to obtain a liquid for intravenous administration. On the other hand, the glutathione derivative of Comparative Example 1 was dissolved in an aqueous solution of 6%-hydroxypropyl-β-cyclodextrin/5%-glucose at 15 mg/ml to obtain an administration liquid.
(3) The administration liquid of the glutathione derivative obtained in (2) at a dose of 2 ml/kg was rapidly infused into the left auricular vein of the rabbits under no anesthesia and under restraint at a rate of 1 ml/min. Each glutathione derivative was given to three or more rabbits. At 5, 10, 15, 30, 60, 120, and 240 minutes after the completion of the administration, 1 ml of the blood was drawn from the right auricular vein in the presence of heparin, which was immediately cooled on ice. Plasma was obtained by centrifuging the blood, 1-2 volume parts of acetonitrile was added to deproteinize the supernatant, which was filtered by a 0.5 μm filter. The supernatant of the filtrate was quantitated by HPLC.

rabbit liver esterase = assay: Decomposition of glutathione derivatives by rabbit liver esterase (physiological stability); format: in vitro ADME; conditions: BSA/D-PBS pH 7.4, 196-244 μg/ml
Description: as §1, §2, §3, §4, §5, §6

[2] = Stability in rabbit plasma; conditions: heparinized plasma, 250-323 μg/ml
Description: as §1, §2
Rat, rabbit, and human plasma
Heparinized plasma: 30 to 40 parts
10 mg-glutathione derivative/ml-ethanol: one part (the final concentration in the reaction mixture is 250-323 μg/ml)

[3] = system: rat models of suppressed hematopoietic function by 5-FU administration; assay: Ratio of segmented neutrophils in rat models of suppressed hematopoietic function by 5-FU (Example 27); format: in vivo; conditions: 5-FU rats
Description: (1) The animals used are the same as in Example 26. The keeping condition was a temperature of 23±2° C. and a humidity of 55±15%.
(2) The creation of the 5-FU administration model, the administration of test substances, and the blood collection schedule were carried out in a similar manner to Example 26. Hematological tests were carried out using the Toa multi-channel automatic cell counter K-4500 or Toa Sysmex CC-180A automatic cell counter, differential counts of white blood cells were carried out by May-Giemsa stain followed by microscopic examination, reticulocytes were counted by the Brecher method.
(3) Using the same schedule as in Example 26, the negative control group that only received the fat emulsion after 5-FU administration, the group that received the glutathione derivative of Example 4 at 30 mg/kg-body weight/day as a test substance together with the fat emulsion, the group that similarly received the glutathione derivative of Example 1 at 10 or 30 mg/kg-body weight/day, and the group that received the glutathione derivative of Example 7 at 30 or 60 mg/kg-body weight/day were studied.

[4] = system: rat models of suppressed hematopoietic function by 5-FU administration; assay: Recovery of neutrophil counts in rat models of suppressed hematopoietic function by 5-FU (Example 26); format: in vivo; conditions: 5-FU rats; 10 μg/kg-body weight/day, days 2-10; day 4 and from day 8
Source text: Regarding the effect of promoting the recovery of neutrophil counts in rat models of suppressed hematopoietic function by 5-fuluorouracil administration, statistical significance was compared to the control group to compare the pharmaceutical composition containing Example 4 of the present invention as an active ingredient with the pharmaceutical composition of the conventional technology of Comparative Example 1 and granulocyte colony-stimulating factor (G-CSF).
(1) Animals used and the keeping condition: Male SD rats, 6-week old, purchased from Nippon SLC were used. The animal feed (manufactured by Oriental Yeast Co., Ltd.) and drinking water (well water treated with 0.4±0.2 ppm hypochlorous acid) were given ad libitum during the period of the experiment. The animals were housed in a hanging-type rat cage (manufactured by Nippon Cage K.K.) and kept at a temperature of 24±2° C. and a humidity of 55±5%.
(2) Creation of rat models of suppressed hematopoietic function by 5-FU administration; Creation of rat models of suppressed hematopoietic function by 5-FU (Kyowa Hakko Kogyo Co. Ltd.) administration was carried out based on the method of Akamatsu et al. (Yakuri to Chiryo(Pharmacology and Therapy), 18. (Suppl. 9), 317-356 (1990)). Thus, on the first day of the experiment, 5-FU at 50 mg/kg-body weight (dosage volume is 1 ml/kg-body weight) or the same amount of physiological saline (manufactured by Fuso Pharmaceuticals Industries, Ltd.) was intraperitoneally administered to the rats described in (1). On days 4, and 7-12, blood was drawn from the jugular vein and the EDTA-2K-treated blood was obtained. The blood was used to determine the neutrophil count using a general chemistry test instrument (Technicon H-1E, manufactured by Bayer-Sankyo K.K.) and the ratio of reticulocytes using a reticulocyte determination instrument (EPICS, XL-MCL, manufactured by Coulter K.K.). Blood was also drawn on day 1 of the experiment, and the values determined for the blood were used as the pre-administration values.
In the physiological saline administration group, no changes in neutrophil count were observed throughout the experiment period, whereas in the 5-FU administration group there was a reduction in neutrophil count with the lowest value observed on day 8 of the experiment, and the neutrophil count was recovered to the value before 5-FU administration or higher on day 10 of the experiment or after. The above results confirmed that rat models of suppressed hematopoietic function can be created by a single intraperitoneal administration of 5-FU at 50 mg/kg-body weight.
(3) Evaluation of Example 4 and Comparative Example 1 in the above model; To the model described in (2), the glutathione derivative of Example 4 combined with the fat emulsion at 10 to 30 mg/kg-body weight/day or the glutathione derivative of Comparative Example 1 dissolved in a physiological saline containing 2.5% hydroxypropyl-β-cyclodextrin at 50 mg/kg-body weight/day was repeatedly administered into the tail vein for 9 days from day 2 to 10 of the experiment. The recombinant human G-CSF formulation (hereinafter referred to as G-CSF, manufactured by Chugai Pharmaceutical Co., Ltd.) as the positive control at 10 μg/kg-body weight/day and the empty fat emulsion as the negative control were administered in a similar manner. […]

[5] = 30 mg/kg-body weight/day with fat emulsion

Molecule | Decomposition rate constant by swine liver esterase (swine liver esterase) | Clearance per body weight [1] [L/kg/h] | Distribution volume per body weight of the central compartment [1] [L/kg] | Decomposition rate constant by rabbit liver esterase (rabbit liver esterase) | Half life in rabbit plasma [2] [min] | Recovery of segmented neutrophil counts relative to the negative control [3, 5] | Recovery of neutrophil counts relative to the negative control ([3]; 60 mg/kg-body weight/day with fat emulsion, days 11 and 12) | Recovery of segmented neutrophil counts relative to the negative control ([3]; 10 mg/kg-body weight/day with fat emulsion) | Neutrophil counts relative to the negative control group [4]
CCCCCCCCCCCCCCOC(=O)[C@@H](N)CCC(=O)N[C@@H](CSCc1ccccc1)C(=O)N[C@@H](C(=O)OCC)c1ccccc1.Cl [Example 6, Glu(Cys(Bzl)-D-Phg-OEt)-O(Tetradecyl)hydrochloride] | 2.61 10^−4/unit/min | 0.29 | 0.08 | 5.11 10^−4/unit/min | 1084 | – | – | – | –
CCCCCCCCCCCCOC(=O)[C@@H](N)CCC(=O)N[C@@H](CSCc1ccccc1)C(=O)N[C@@H](C(=O)OCC)c1ccccc1.Cl [Example 7, Glu(Cys(Bzl)-D-Phg-OEt)-O(Dodecyl)hydrochloride] | 15.2 10^−4/unit/min | 2.85 | 0.47 | 21.1 10^−4/unit/min | 323 | no changes relative to the negative control | tendency of promoting the recovery of neutrophil counts | – | –
CCCCCCCCCCCCCCCCCCOC(=O)[C@@H](N)CCC(=O)N[C@@H](CSCc1ccccc1)C(=O)N[C@@H](C(=O)OCC)c1ccccc1.Cl [Example 1, Glu(Cys(Bzl)-D-Phg-OEt)-O(Octadecyl)hydrochloride] | 0.0901 10^−4/unit/min | 0.03 | 0.06 | 0.300 10^−4/unit/min | 24514 | tendency of promoting the recovery of segmented neutrophil counts | – | tendency of promoting the recovery of segmented neutrophil counts | –
G-CSF: recombinant human G-CSF formulation, manufactured by Chugai Pharmaceutical Co., Ltd., positive control (protein, UniProt P09919 31-207, looked up) Granulocyte …: TPLGPASSLPQSFLLKCLEQVRKIQGDGAALQEKLVSECATYKLCHPEELVLLGHSLGIPWAPLSSCPSQALQLAGCLSQLHSGLFLYQGLLQALEGISPELGPTLDTLQLDVADFATTIWQQMEELGMAPALQPTQGAMPAFASAFQRRAGGVLVASHLQSFLEVSYRVLRHLAQP | – | – | – | – | – | – | – | – | statistically significant increase in neutrophil counts
